Reference: paper PMC4474554 (PLoS ONE, 2015)
Values joined by “and” are separate entries in the source; they are usually repeats but may differ in a detail not shown here. Identical values can stand only once. “Also recorded” adds a separate entry of the source. Like-named read-outs stand apart in the source and are kept apart here.

Tests used:
[1] = test system: Flt-4; design: method as in earlier work; conditions: updated data; cited from earlier work
[2] = test system: c-Kit; design: method as in earlier work; conditions: updated data; cited from earlier work
[3] = test system: HER2; conditions: updated data; cited from earlier work
[4] = test system: NCI-H1993; assay: MTS assay, NCI-H1993
Procedure: (§1) Drug sensitivity was determined by a modified MTS assay with CellTiter 96 AQueous One Solution Reagent (Promega, Madison, WI). Cells were generally seeded on 96-well plates at a density that would yield 80% confluence by the completion of the experiment, varying by each cell line from 3000 to 4000 per well. […] After that, MTS dye was added to each well. The cultures were incubated for another 1 hour at 37°C in a humidified atmosphere with 5% CO2. Optical densities of samples were measured at 490 nm using Immuno Mini NJ-2300 (Nalge Nunc International KK, Rochester, NY). Mean optical density at each drug concentration was calculated after discarding the highest and lowest values. […] IC50 values were expressed as mean and standard deviations. The assays were repeated until the standard deviation became less than the mean.

[5] = test system: NCI-H1666; assay: MTS assay, NCI-H1666
Procedure: as §1

[6] = test system: phospho-IGF-IR; assay: Western blotting, IGF-IR phosphorylation in NSCLC cell lines; assay type: cell-based; conditions: up to a concentration of 5 μM; PC-9, HCC827, NCI-H1975, RPC-9, NCI-H1299, NCI-H1819
Procedure: Next, they were washed out with cold PBS and lysed in 1 × cell lysis buffer [20 mM Tris-HCl (pH 7.5), 150 mM NaCl, 1 mM Na2EDTA, 1 mM EGTA, 1% Triton, 2.5 mM sodium pyrophosphate, 1 mM beta-glycerophosphate, 1 mM Na3VO4, 1 μg/ml leupeptin] (Cell signaling Technology) supplemented with Complete, Mini (Roche, Basel, Switzerland) to extract protein. After the protein concentration was measured, equal amounts of total protein (30 μg) were separated by SDS-PAGE and transferred to PVDF membranes. The proteins on membranes were incubated overnight at 4°C with the primary antibodies. The following secondary antibodies were used: goat antirabbit or antimouse IgG-conjugated horseradish peroxidase (HRP) (Santa Cruz Biotechnology, Santa Cruz, CA). To detect specific signals, the membranes were incubated by ECL plus Western Blotting Detection Reagents (Amersham Biosciences UK Limited, Buckinghamshire, UK).

Q: With `CNC(=O)c1ccccc1Nc1nc(Nc2ccc(N3CCOCC3)cc2OC)ncc1Cl` [TAE226] as the compound, how does the IC50 [1] read?
A: The IC50 was 220 nM.

Q: And the IC50 [2]?
A: The IC50 was > 10000 nM.

Q: And the IC50 [3]?
A: Its IC50 is 950 nM.

Q: And the IC50 ([4]; read-out: IC50 (μM) (mean ± SD), NCI-H1993, MET amplification, MTS, TAE226 48 hours, gefitinib 72 hours)?
A: Its IC50 is 0.89 ± 0.001 µM.

Q: What about the IC50 ([4]; read-out: each IC50, NCI-H1993, independent MTS assays) of the same compound?
A: Its IC50 is 0.89 µM.

Q: And the IC50 ([4]; read-out: mean IC50, NCI-H1993, mean of independent MTS assays)?
A: Its IC50 is 0.89 µM.

Q: And the IC50 ([5]; read-out: IC50 (μM) (mean ± SD), NCI-H1666, BRAF Exon 11 (G466V), MTS, TAE226 48 hours, gefitinib 72 hours)?
A: Its IC50 is 0.42 ± 0.08 µM.

Q: And the IC50 ([5]; read-out: each IC50, NCI-H1666, independent MTS assays)?
A: The IC50 was 0.5 µM and 0.34 µM.

Q: And the “phosphorylation of IGF-IR (Tyr1131)” value [6]?
A: Its value is “not significantly inhibited; also recorded: not suppressed”.
